Test results from patent US12083079B2, “Sphingoid compounds for prophylaxis and/or therapy of a viral infection” (priority 2018, dated 2024).

Tests used:
[1] = test system: lymphocytic choriomeningitis virus (LCMV); format: cell-based
[2] = test system: epithelial cells of the nose; assay: Dead nasal epithelial cells after intranasal sphingosine (Trypan Blue); format: in vivo; settings: wild-type mice, 10 μL of 10 μM or 100 μM solution intranasal; 8 hours or 24 hours
Protocol: Sphingosine was applied into the nose of wild-type mice as in 3.2. 10 μL of a 10 μM or a 100 μM sphingosine (SPH) solution was administered into the nostrils of wild-type mice. Controls received the solvent, i.e. octylglucopyranoside at the same concentration used when sphingosine was applied, or were left untreated. Mice were anesthetized prior to application of sphingosine. Mice were sacrificed after 8 hours or 24 hours, the nasal bone was removed and incubated in Trypsin solution for 10 min to release and isolate epithelial cells. Cells were washed twice in H/S (20 mM HEPES, 132 mM NaCl, 5 mM KCl, 1 mM CaCl2), 0.7 mM MgCl2, 0.8 mM MgSO4, pH 7.4), stained with Trypan Blue (0.2% final concentration) and dead cells were counted in aliquots of 500 cells. Given is the percentage of dead cells±SD from 4 independent experiments each; *p<0.05, ANOVA.

rhinovirus 2 (RV2) = assay: RV2 infection of freshly isolated human epithelial cells, Hela cytotoxicity readout; format: cell-based; settings: 10 μM or 20 μM, 24 hrs
Protocol: (§1) 10^4 PFU of Rhinovirus 2 or 14 (RV2, RV14) were incubated with freshly isolated human epithelial cells for 24 hrs in the presence of 10 μM or 20 μM sphingosine (SPH) or the corresponding concentration of the solvent octylglucopyranoside (OGP), the cells were pelleted, supernatants completely removed, the cell pellets resuspended in PBS and added to Hela cells. Cells were incubated for 3 days and cytotoxicity as measurement for virus titers was determined. Shown is the mean±SD, n=4, *p<0.001 ANOVA.

RV1b = assay: Binding of sphingosine to RV1b immobilized to agarose beads, remaining sphingosine by kinase assay; set-up: species or system rhinovirus; settings: 250 μM sphingosine in PBS (pH 7.0), 4 hrs at 4° C.
Protocol: As a complement to the above study, RV1b (obtained from ATCC) were immobilized to agarose beads and tested for binding of sphingosine (SPH). To this end, we incubated 1 μg/ml anti-RV1b antibodies with 10^6 CFU RV1b for 1 h at 4° C. in H/S, added 50 μL agarose protein A/G beads (Santa Cruz Inc.), incubated for an additional 1 h at 4° C. and washed the immobilized precipitates 5-times in H/S. We resuspended the beads in 500 μL PBS (pH 7.0) containing 250 μM sphingosine. Samples were incubated for 4 hrs at 4° C., pelleted and aliquots of the supernatants were added to 50 mM HEPES (pH 7.4), 250 mM NaCl, 30 mM MgCl2, 0.001 units sphingosine kinase (R&D), 1 mM ATP and 10 μCi [^32P]γATP. The kinase reaction was performed for 1 hr at 30° C., stopped by addition of 20 μl 1N HCl, 800 μl CHCl3/CH3OH/1N HCl (100:200:1, v/v/v), 240 μl CHCl3 and 2 M KCl. Phases were separated, the lower phase was collected, dried, dissolved in 20 μL of CHCl3:CH3OH (1:1, v/v) and separated on Silica G60 thin layer chromatography (TLC) plates using CHCl3/CH3OH/acetic acid/H2O (90:90:15:5, v/v/v/v). The TLC plates were exposed to radiography films, spots were removed from the plates, and the incorporation of [^32P] into sphingosine measured by liquid scintillation counting. Sphingosine was determined using a standard curve of C18-SPH. […]

[3] = test system: rhinovirus strain RV2 (minor strain); assay: Rhinovirus RV2 infection of Hela cells, dead cells by Trypan Blue; format: cell-based; settings: added 10 min before or 60 min or 240 min after infection, 4 days
[4] = test system: lymphocytic choriomeningitis virus (LCMV); format: cell-based; remark: listed apart in the source
[5] = test system: rhinovirus strain RV14 (major strain); assay: Rhinovirus RV14 infection of Hela cells, dead cells by Trypan Blue; format: cell-based; settings: added 10 min before or 60 min or 240 min after infection, 4 days
[6] = test system: rhinovirus strain 2 (RV2); assay: Intranasal RV2 infection of wild-type mice, Hela cell death bioassay of nasal bone; format: in vivo; settings: 10 μL of 100 μM intranasal, 10 min prior to or 1, 4 or 8 hrs after infection, sacrificed after 24 hrs
Protocol: Mice were infected with 10^3 PFU rhinovirus strain 2 (RV2) in 10 μL PBS. The virus was applied directly into the nose using a blunt ended, plastic coated 30 g needle, that was inserted into the nose approximately 2 mm. Sphingosine (SPH) was applied into the nose of the wild-type mice at a concentration of 100 μM solution in PBS in a volume of 10 μL. Sphingosine was applied either 10 min prior to rhinovirus infection (b.i.) or 1 hr, 4 hrs and 8 hrs after the infection (a.i.). Controls received the solvent, i.e. octylglucopyranoside (OGP) at the same concentration than used when sphingosine was applied, or were left untreated, but infected. Solutions were applied as in 3.2. Mice were sacrificed after 24 hrs, the nasal bone was removed and incubated for 4 days with Hela cells in a 24 well plate. If the nasal epithelial cells are infected, rhinovirus will be released due to the cytopathic effect of the virus and the in vivo infection can then be determined and quantified by measuring cell death of Hela cells as a bioassay. To this end, dead cells were collected, adherent cells were trypsinized, the fractions were combined, washed twice in H/S (20 mM HEPES, 132 mM NaCl, 5 mM KCl, 1 mM CaCl2), 0.7 mM MgCl2, 0.8 mM MgSO4, pH 7.4), stained with Trypan Blue (0.2% final concentration) and dead cells were counted in aliquots of 500 cells as above. […]

[7] = Surface sphingosine in nasal mucosa after intranasal application, in situ sphingosine kinase assay; format: in vivo; settings: wild-type mice
Protocol: Sphingosine (SPH) was applied into the nose of wild-type mice and the concentration of sphingosine on the epithelial cell surface was determined after 1, 4 and 8 hrs (a.i.: after injection of sphingosine). To this end, 10 μl, of a 10 μM or a 100 μM sphingosine solution was applied into the nostrils of wild-type mice. Controls received the solvent, i.e. octylglucopyranoside at the same concentration used when sphingosine was applied, or were left untreated. Mice were slightly and very briefly anesthetized with ether. For the intranasal application we used a blunt-end 30 g needle that was covered with a thin plastic film. The blunt-ended needle was inserted into the nostrils approximately 2 mm. Mice were sacrificed after the indicated time, the nasal bone was removed, placed on a 30° C. pre-warmed plastic plate and an area of 2 mm×2 mm was immediately incubated with 0.001 units of sphingosine kinase 1 (#6068-SK-010, R&D) in 4 μl of 150 mM sodium acetate (pH 7.4), 1 μM ATP, and 10 μCi [^32P]γATP/sample. Controls were incubated with the same buffer without sphingosine kinase or were left untreated. […] The TLC plates were analyzed with a phosphoimager. Surface sphingosine levels were determined with a standard curve of C18-sphingosine. […]

Hela cells = settings: uninfected Hela cells, 10 μM or 20 μM
rhinovirus 14 (RV14) = assay: RV14 infection of freshly isolated human epithelial cells, Hela cytotoxicity readout; format: cell-based; settings: 10 μM or 20 μM, 24 hrs
Protocol: as §1

HIV-1 JR-CSF = assay: HIV-P24 ELISA in supernatant of infected human T cells; format: cell-based; settings: 50 μM, after 7 days
[8] = test system: vesicular stomatitis virus (VSV); format: cell-based

## Oc1ccc(Nc2nc(-c3ccc(Cl)cc3)cs2)cc1 [SKII, 2-(p-hydroxyanilino)-4-(p-chlorophenyl)thiazole]
[1]
  virus-infected cells by immunofluorescence: inhibits the spreading of the virus

## CCCCCCCCCCCCC/C=C/[C@@H](O)[C@@H](N)CO [sphingosine, (2S,3R,4E)-2-amino-4-octadecene-1,3-diol]
[2]
  toxic effects (percentage of dead nasal epithelial cells): no toxic effects on epithelial cells of the nose
Rhinovirus 2 (RV2)
  infection of human epithelial cells by RV2 (cytotoxicity as measurement for virus titers): abrogates infection
RV1b
  binding of sphingosine to RV1b-coupled agarose beads (remaining sphingosine in the supernatant): efficiently bind sphingosine
[3]; 10 μM
  infection with RV2 (percentage of dead cells): prevented the infection
[3]; 20 μM
  infection with RV2 (percentage of dead cells): prevented the infection
[4]
  virus production (infectious LCMV particles in the supernatant): inhibits the propagation of LCMV
[5]; 10 μM
  infection with RV14 (percentage of dead cells): prevented the infection
[5]; 20 μM
  infection with RV14 (percentage of dead cells): prevented the infection
[6]
  infection with RV2 in vivo (percentage of dead Hela cells, bioassay): prevented
[7]; 10 μl of 10 μM or 100 μM solution into the nostrils, 1, 4 and 8 hrs
  surface sphingosine concentration in nasal mucosa: dose-dependent accumulation of sphingosine in the mucosa
[7]; washing prior to the in situ kinase assay
  surface sphingosine concentration after washing the mucosa in PBS: reduces sphingosine accumulation
Hela cells
  effect of sphingosine itself on the cells (percentage of dead cells): had no effect on the cells
Rhinovirus 14 (RV14)
  infection of human epithelial cells by RV14 (cytotoxicity as measurement for virus titers): abrogates infection

## MP A08
HIV-1 JR-CSF
  amount of HIV-P24 in the supernatant: prevents the propagation of HIV

## sphingomyelinase
[4]
  virus production (infectious LCMV particles in the supernatant): inhibits the propagation of LCMV
[8]
  number of plaques: inhibits the propagation of VSV
